Values quoted from earlier work as cited in patent US7825150B2, “Compositions and methods for treating immunological and inflammatory diseases and disorders” (Lexicon Pharmaceuticals, Inc., priority 2007, dated 2010).
Read-outs that look alike come from different tables or passages of the source.

Columns and labels:
[1] = system: adjuvant-induced arthritis (AA) model; conditions: therapeutic setting, established disease state; majority of published studies
[2] = humans
[3] = system: lymphocytes; conditions: administration to mice
[4] = target: T1, S1P lyase (Mus musculus, UniProt Q8R0X7); conditions: administered to mice; Schwab et al. 2005
T1 construct: host or cells: mice, in vivo (endogenous enzyme)
T1 sequence (Q8R0X7 1-568): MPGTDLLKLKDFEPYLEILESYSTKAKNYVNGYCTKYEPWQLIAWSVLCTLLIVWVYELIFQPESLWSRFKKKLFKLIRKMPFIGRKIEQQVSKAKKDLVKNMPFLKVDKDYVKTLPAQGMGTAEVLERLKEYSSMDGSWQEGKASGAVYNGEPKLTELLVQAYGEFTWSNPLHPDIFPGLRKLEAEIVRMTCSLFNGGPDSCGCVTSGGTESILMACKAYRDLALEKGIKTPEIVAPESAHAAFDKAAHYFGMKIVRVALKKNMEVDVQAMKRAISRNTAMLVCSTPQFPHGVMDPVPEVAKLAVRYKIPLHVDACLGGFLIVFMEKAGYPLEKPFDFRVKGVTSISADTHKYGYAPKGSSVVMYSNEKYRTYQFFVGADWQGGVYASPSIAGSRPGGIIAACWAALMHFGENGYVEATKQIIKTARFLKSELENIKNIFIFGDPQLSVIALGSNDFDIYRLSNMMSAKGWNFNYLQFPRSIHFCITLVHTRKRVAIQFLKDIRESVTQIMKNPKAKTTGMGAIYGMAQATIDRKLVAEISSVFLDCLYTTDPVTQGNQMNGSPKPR

[5] = system: lymphocytes; conditions: administration to rats

| Structure (SMILES) | effectiveness of MTX treatment alone in this model [1] | immunological effects [2] | accumulation of mature T cells in the thymus [3] | lymphopenia [3] | S1P lyase activity [4] | accumulation of mature T cells in the thymus [5] | lymphopenia [5] |
| --- | --- | --- | --- | --- | --- | --- | --- |
| CN(Cc1cnc2nc(N)nc(N)c2n1)c1ccc(C(=O)N[C@@H](CCC(=O)O)C(=O)O)cc1 [MTX, methotrexate] | not effective | – | – | – | – | – | – |
| CC(=O)c1nc(C(O)C(O)C(O)CO)c[nH]1 (stereo not shown) [THI, 2-acetyl-4-tetrahydroxybutylimidazole] | – | no immunological effects | causes the accumulation of mature T cells in the thymus | induces lymphopenia | inhibits S1P lyase activity | causes the accumulation of mature T cells in the thymus | induces lymphopenia |
